Patent US5462933A, “Modified bile acid conjugates, and their use as pharmaceuticals” (Hoechst Aktiengesellschaft, priority 1989, dated 1995)
Where two headings read alike, the source gives them in different places.

Biological target: T1, Na+-dependent bile acid transport system (Oryctolagus cuniculus, UniProt Q28727)
T1 construct: brush-border membrane vesicles from the ileum of rabbits; from tissue; host or cells: terminal ileum of male New Zealand rabbits, brush-border membrane vesicles
T1 sequence (Q28727 1-347): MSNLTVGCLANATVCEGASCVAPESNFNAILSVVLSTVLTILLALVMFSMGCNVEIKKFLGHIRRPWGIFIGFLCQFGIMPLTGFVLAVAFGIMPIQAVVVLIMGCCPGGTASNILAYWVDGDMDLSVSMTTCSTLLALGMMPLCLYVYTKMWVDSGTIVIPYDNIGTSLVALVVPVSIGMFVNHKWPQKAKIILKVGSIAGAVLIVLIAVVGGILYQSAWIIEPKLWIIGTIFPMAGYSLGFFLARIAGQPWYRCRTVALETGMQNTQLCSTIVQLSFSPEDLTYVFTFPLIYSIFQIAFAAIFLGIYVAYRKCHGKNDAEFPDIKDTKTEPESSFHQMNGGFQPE
Assay: Inhibition of Na+-dependent [3H]taurocholate absorption into brush-border membrane vesicles of the ileum
Assay type: biochemical, rabbit
Procedure: The preparation of brush-border membrane vesicles from the intestinal cells of the small intestine was carried out using the so-called Mg^2+ precipitation method. Male New Zealand rabbits (2-2.5 kg body weight) were sacrificed by intravenous injection of 0.5 ml of T-61^R. The small intestine was removed and rinsed with ice-cold physiological saline solution. The terminal 3/10 of the small intestine (measured in the oral-rectal direction, i.e. the terminal ileum, which contains the active Na^+ -dependent bile acid transport system) were used for preparation of the brush-border membrane vesicles. The intestines were frozen at -80° C. under nitrogen in plastic bags. The frozen intestines were thawed in a water bath at 30° C. in order to prepare the membrane vesicles. The mucosa was scraped off and suspended in 60 ml of ice-cold 12 mM trys/HCl buffer (pH 7.1)/300 mM mannitol, 5 mM EGTA/10 mg/l of phenylmethylsulfonyl fluoride/1 mg/l of soybean trypsin inhibitor (32 U/mg)/0.5 mg/l of bovine lung trypsin inhibitor (193 U/mg)/5 mg/l of bacitracin. After diluting to 300 ml with ice-cold distilled water, the suspension was homogenized with ice-cooling for 3 minutes at 75% of maximum power using an Ultraturrax (18 rod, IKA Werk Staufen, Federal Republic of Germany). After addition of 3 ml of 1M MgCl2 solution (final concentration 10 mM), the homogenate was allowed to stand at 0° C. for exactly 1 minute. As a result of addition of Mg^2+, the cell membranes aggregate and precipitate with the exception of the brush-border membranes. After centrifugation at 3,000×g (5,000 rpm, SS-34 rotor) for 15 minutes, the precipitate is discarded and the supernatant which contains the brush-border membranes is centrifuged at 26,700×g (15,000 rpm, SS-34 rotor) for 30 minutes. The supernatant was discarded, and the precipitate was rehomogenized in 60 ml of 12 mM tris/HCl buffer (pH 7.1)/60 mM mannitol, 5 mM EGTA using a Potter Elvejhem homogenizer (Braun Melsungen, 900 rpm, 10 strokes). After addition of 0.1 ml of 1M MgCl2 solution and an incubation time of 15 minutes at 0° C., the mixture was again centrifuged at 3,000×g for 15 minutes. The supernatant was then again centrifuged at […] (15,000 rpm, SS-34 rotor) for 30 minutes. The precipitate was taken up in 30 ml of 10 mM tris/hepes buffer (pH 7.4)/300 mM mannitol and homogeneously resuspended by 20 strokes in a Potter Elvejhem homogenizer at 1,000 rpm. After centrifugation at 48,000×g (20,000 rpm, SS-34 rotor) for 30 minutes, the precipitate was taken up in 0.5 to 2 ml of tris/hepes buffer (pH 7.4)/280 mM mannitol (final concentration 20 mg/ml) and resuspended with the aid of a tuberculin syringe using a 27 gauge needle. The vesicles were either used immediately after preparation for transport investigations or stored at -196° C. in liquid nitrogen in 4 mg portions.
The absorption of substrates into brush-border membrane vesicles was determined by means of the so-called membrane filtration technique. 10 μl of the vesicle suspension (100 μg of protein) were pipetted on the wall of a polystyrene incubation tube (11×70 mm) as a drop which contained the incubation medium together with the corresponding ligands (90 μl ). […] The incubation medium was filtered through a polyvinylidene fluoride membrane filter (SYHV LO 4NS, 0.45 μm, 4 mm .phi., Millipore, Eschborn, Federal Republic of Germany). The transport measurement was begun by mixing the vesicles with the incubation medium. […] After the desired incubation time (customarily 1 min), the transport was stopped by addition of 1 ml of ice-cold stop solution (10 mM tris/hepes, (pH 7.4)/150 mM KCl). The resulting mixture was immediately filtered off with suction in a vacuum of 25 to 35 mbar through a membrane filter made of cellulose nitrate (ME 25, 0.45 μm, 25 mm diameter, Schleicher & Schuell, Dassell, Federal Republic of Germany). The filter was subsequently washed with 5 ml of ice-cold Stop solution.

[1] = Na+-dependent transport component, 50 μM taurocholate

Row | Compound | IC25 [µM] | IC75 [µM] | IC50 (read-out: IC50) [µM] | IC50 [µM] | IC25 [1] [µM] | IC75 [1] [µM]
1 | COC(=O)CC[C@@H](C)[C@H]1CC[C@H]2[C@@H]3[C@H](O)C[C@@H]4C[C@@H](OCCNC(=O)[C@@H](C)NC(=O)[C@@H](C)N)CC[C@]4(C)[C@H]3C[C@H](O)[C@]12C [Example 120, H-D-Ala-D-Ala-NH--(CH2)2 --GS--OCH3] | 38 | 178 | 87 | – | – | –
2 | C[C@H](CCC(=O)O)[C@H]1CC[C@H]2[C@@H]3[C@H](O)C[C@@H]4C[C@@H](OCCNC(=O)CCCc5ccc(N(CCCl)CCCl)cc5)CC[C@]4(C)[C@H]3C[C@H](O)[C@]12C [Example 66] | – | – | – | 86.5 | 60 | 148
3 | CC(C)c1cc(-c2ccc(F)cc2)c(OC[C@@H](O)C[C@@H](O)CC(=O)NCCO[C@H]2CC[C@@]3(C)[C@@H](C2)C[C@@H](O)[C@@H]2[C@@H]3C[C@H](O)[C@]3(C)[C@@H]([C@H](C)CCC(=O)O)CC[C@@H]23)c(C(C)C)c1 [Example 81] | 15 | 64 | 38 | – | – | –
4 | C[C@H](CCC(=O)NCCS(=O)(=O)O)[C@H]1CC[C@H]2[C@@H]3CC[C@@H]4C[C@H](O)CC[C@]4(C)[C@H]3CC[C@]12C [Taurolithocholate, reference compound] | – | – | 12 | – | – | –
5 | C[C@H](CCC(=O)NCCS(=O)(=O)O)[C@H]1CC[C@H]2[C@@H]3[C@H](O)C[C@@H]4C[C@H](O)CC[C@]4(C)[C@H]3CC[C@]12C [Taurochenodeoxycholate, reference compound] | – | – | 23 | – | – | –
6 | CC(C)c1nc(-c2ccccc2)cc(-c2ccc(F)cc2)c1/C=C/[C@@H](O)C[C@@H](O)CC(=O)NCCO[C@H]1CC[C@@]2(C)[C@@H](C1)C[C@@H](O)[C@@H]1[C@@H]2C[C@H](O)[C@]2(C)[C@@H]([C@H](C)CCC(=O)O)CC[C@@H]12 [Example 85] | 18 | 64 | 43 | – | – | –
7 | C[C@H](CCC(=O)O)[C@H]1CC[C@H]2[C@@H]3[C@H](O)C[C@@H]4C[C@@H](OCCNC(=O)[C@@H](C)NC(=O)[C@@H](C)N)CC[C@]4(C)[C@H]3C[C@H](O)[C@]12C [Example 121, H-D-Ala-D-Ala-NH--(CH2)2 --GS--OH] | 30 | 172 | 84 | – | – | –
8 | CC(C)c1cc(-c2ccc(F)cc2)c(OC[C@@H](O)C[C@@H](O)CC(=O)NCCO[C@H]2CC[C@@]3(C)[C@@H](C2)C[C@@H](O)[C@@H]2[C@@H]3C[C@H](O)[C@]3(C)[C@@H]([C@H](C)CCC(=O)NCCS(=O)(=O)O)CC[C@@H]23)c(C(C)C)c1 [Example 111] | 10 | 39 | 24 | – | – | –
9 | CC(C)c1cc(Sc2ccc(F)cc2)cc(-c2ccc(F)cc2)c1OC[C@@H](O)C[C@@H](O)CC(=O)NCCCO[C@H]1CC[C@@]2(C)[C@@H](C1)C[C@@H](O)[C@@H]1[C@@H]2C[C@H](O)[C@]2(C)[C@@H]([C@H](C)CCC(=O)O)CC[C@@H]12 [Example 94] | 4.5 | 24 | 13 | – | – | –
10 | CC(C)c1nc(-c2ccccc2)cc(-c2ccc(F)cc2)c1/C=C/[C@@H](O)C[C@@H](O)CC(=O)NCCCO[C@@H]1CC[C@@]2(C)[C@@H](C1)C[C@@H](O)[C@@H]1[C@@H]2C[C@H](O)[C@]2(C)[C@@H]([C@H](C)CCC(=O)O)CC[C@@H]12 [Example 87] | 16 | 70 | 56 | – | – | –
11 | C[C@H](CCC(=O)O)[C@H]1CC[C@H]2[C@@H]3[C@H](O)C[C@@H]4C[C@@H](OCCNC(=O)[C@@H](C)NC(=O)[C@@H](C)NC(=O)OCc5ccccc5)CC[C@]4(C)[C@H]3C[C@H](O)[C@]12C [Example 122, Z-D-Ala-D-Ala-NH--(CH2)2 --GS--OH] | 19 | 237 | 107 | – | – | –
12 | CC(C)c1cc(Sc2ccc(F)cc2)cc(-c2ccc(F)cc2)c1OC[C@@H](O)C[C@@H](O)CC(=O)NCCO[C@H]1CC[C@@]2(C)[C@@H](C1)C[C@@H](O)[C@@H]1[C@@H]2C[C@H](O)[C@]2(C)[C@@H]([C@H](C)CCC(=O)O)CC[C@@H]12 [Example 93] | 3.2 | 23 | 8 | – | – | –
